Results on three compounds are retold here after ChEMBL document CHEMBL1146438, “Structure and anti-acetylcholinesterase activity of 4 alpha-(hydroxymethyl)-4 alpha-demethylterritrem B” (J Nat Prod, 1997).

One may read the IC50 as the concentration needed to halve the response being measured.

In the assay the target is Acetylcholinesterase (Electrophorus electricus, UniProt O42275). The assay can be described thus: Inhibition of electric eel AChE by Ellman's method.
Sequence of Acetylcholinesterase (O42275 whole entry): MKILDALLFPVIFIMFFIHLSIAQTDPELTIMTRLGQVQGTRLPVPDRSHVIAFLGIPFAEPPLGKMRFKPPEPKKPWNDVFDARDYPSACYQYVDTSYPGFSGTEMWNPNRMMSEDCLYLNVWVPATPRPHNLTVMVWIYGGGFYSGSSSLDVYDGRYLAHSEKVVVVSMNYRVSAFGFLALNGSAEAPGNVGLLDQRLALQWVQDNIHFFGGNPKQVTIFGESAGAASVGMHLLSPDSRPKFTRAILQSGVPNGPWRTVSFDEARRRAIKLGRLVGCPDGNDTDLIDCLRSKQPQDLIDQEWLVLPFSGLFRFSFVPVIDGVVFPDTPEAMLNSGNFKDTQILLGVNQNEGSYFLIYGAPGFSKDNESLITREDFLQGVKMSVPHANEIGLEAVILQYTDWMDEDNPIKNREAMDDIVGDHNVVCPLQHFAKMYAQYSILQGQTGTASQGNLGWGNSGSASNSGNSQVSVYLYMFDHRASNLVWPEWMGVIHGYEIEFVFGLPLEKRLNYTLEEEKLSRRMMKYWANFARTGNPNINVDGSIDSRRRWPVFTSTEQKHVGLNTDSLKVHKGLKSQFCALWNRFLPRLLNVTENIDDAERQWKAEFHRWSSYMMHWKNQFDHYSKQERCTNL
With `COc1cc(-c2cc3c(c(=O)o2)C[C@]2(O)[C@@]4(C)C(=O)C=C[C@@](C)(CO)[C@]4(O)CC[C@@]2(C)O3)cc(OC)c1OC` [4ALPHA-(HYDROXYMETHYL)-4ALPHA-DEMETHYLTERRITREM B], the IC50 was determined as 0.423 nM.
In turn, `C=CC[N+](C)(C)c1ccc(CCC(=O)CCc2ccc([N+](C)(C)CC=C)cc2)cc1` showed an IC50 of 10 nM.
For the compound `COc1cc(-c2cc3c(c(=O)o2)C[C@]2(O)[C@@]4(C)C(=O)C=C[C@](C)(CO)[C@]4(O)CC[C@@]2(C)O3)cc(OC)c1OC`, it took 790 nM to reach half-maximal inhibition (IC50).
